Data as given in ChEMBL document CHEMBL1129258, “Synthesis and structure-activity relationships of 2-pyridones: a novel series of potent DNA gyrase inhibitors as antibacterial agents” (J Med Chem, 1996).
Converted amounts (≈) assume the structure as drawn.

Tested on: not listed separately
Test: in vivo
Conditions: rat, plasma, po, 5 mg/kg

SMILES	half-life [h]
Cc1c(N2CC[C@H](N)C2)c(F)cn2c(=O)c(C(=O)O)cc(C3CC3)c12 [ABT-719]	1.2

Biological target: T1, DNA gyrase (Staphylococcus aureus) (UniProt P0A0K8+P20831)
T1 sequence (P0A0K8 2-644 limits assumed): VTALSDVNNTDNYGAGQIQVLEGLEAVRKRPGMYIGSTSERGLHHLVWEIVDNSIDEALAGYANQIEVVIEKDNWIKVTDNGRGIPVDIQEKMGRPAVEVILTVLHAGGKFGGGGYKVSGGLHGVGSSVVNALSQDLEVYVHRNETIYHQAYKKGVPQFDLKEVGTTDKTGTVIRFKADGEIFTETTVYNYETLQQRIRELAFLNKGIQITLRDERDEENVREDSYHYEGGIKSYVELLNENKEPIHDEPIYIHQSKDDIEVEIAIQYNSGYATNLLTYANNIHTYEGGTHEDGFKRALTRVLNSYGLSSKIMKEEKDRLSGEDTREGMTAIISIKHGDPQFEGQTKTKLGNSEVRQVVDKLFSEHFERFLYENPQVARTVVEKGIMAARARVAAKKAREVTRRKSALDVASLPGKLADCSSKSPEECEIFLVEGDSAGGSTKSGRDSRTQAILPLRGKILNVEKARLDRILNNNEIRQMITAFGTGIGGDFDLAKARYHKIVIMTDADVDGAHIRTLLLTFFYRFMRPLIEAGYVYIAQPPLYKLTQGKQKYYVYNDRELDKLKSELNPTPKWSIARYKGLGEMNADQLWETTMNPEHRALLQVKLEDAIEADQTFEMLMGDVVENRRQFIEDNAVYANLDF
T1 sequence (P20831 whole entry partner): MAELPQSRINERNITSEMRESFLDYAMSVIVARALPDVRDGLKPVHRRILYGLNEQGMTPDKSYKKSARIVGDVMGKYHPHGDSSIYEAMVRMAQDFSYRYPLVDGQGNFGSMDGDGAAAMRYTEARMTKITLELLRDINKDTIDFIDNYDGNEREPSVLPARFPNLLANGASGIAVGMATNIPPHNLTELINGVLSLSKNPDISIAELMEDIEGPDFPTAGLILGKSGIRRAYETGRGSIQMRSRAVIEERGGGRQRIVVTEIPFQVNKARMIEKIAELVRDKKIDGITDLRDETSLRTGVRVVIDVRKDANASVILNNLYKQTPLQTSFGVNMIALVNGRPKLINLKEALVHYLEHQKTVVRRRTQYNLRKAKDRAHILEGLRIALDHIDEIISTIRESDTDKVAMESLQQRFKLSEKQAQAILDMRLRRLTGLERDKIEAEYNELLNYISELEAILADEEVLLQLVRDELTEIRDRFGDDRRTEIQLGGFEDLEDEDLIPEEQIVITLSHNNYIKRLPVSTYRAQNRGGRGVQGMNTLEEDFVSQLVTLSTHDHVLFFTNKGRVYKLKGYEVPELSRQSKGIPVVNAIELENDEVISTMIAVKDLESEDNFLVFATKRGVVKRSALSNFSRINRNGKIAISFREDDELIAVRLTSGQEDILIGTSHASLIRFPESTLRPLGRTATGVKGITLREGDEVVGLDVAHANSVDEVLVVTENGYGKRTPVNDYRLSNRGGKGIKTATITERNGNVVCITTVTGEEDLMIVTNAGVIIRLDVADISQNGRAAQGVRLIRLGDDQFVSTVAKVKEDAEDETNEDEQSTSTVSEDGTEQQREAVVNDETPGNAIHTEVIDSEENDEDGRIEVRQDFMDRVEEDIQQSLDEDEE
Test: In vitro antibacterial activity against gram-positive organism Staphylococcus aureus NCTC-10649M
Assay type: functional
Conditions: not given

SMILES	MIC [µg/mL]
Cc1c(N2CC[C@H](N)C2)c(F)cn2c(=O)c(C(=O)O)cc(C3CC3)c12 [ABT-719]	0.01 (≈ 0.029 µM)

Biological target: T2, DNA gyrase (Escherichia coli) (UniProt P0AES6+P0AES4)
Test: In vitro antibacterial activity against gram-negative organism Prov. stuartii CMX-640
Assay type: functional
Conditions: Providencia stuartii

SMILES	MIC [µg/mL]
Cc1c(N2CC[C@H](N)C2)c(F)cn2c(=O)c(C(=O)O)cc(C3CC3)c12 [ABT-719]	0.2 (≈ 0.579 µM)

Biological target: T1, DNA gyrase (Staphylococcus aureus)
Test: In vivo efficacy against Staphylococcus aureus NCTC-10649M after oral administration
Assay type: functional, organism-based
Conditions: not given

SMILES	ED50 [mg/kg]
Cc1c(N2CC[C@H](N)C2)c(F)cn2c(=O)c(C(=O)O)cc(C3CC3)c12 [ABT-719]	3.4

Tested on: Streptococcus pneumoniae
Test: (§1) In vivo efficacy against Strep. administration
Assay type: functional
Conditions: Streptococcus pneumoniae; read-out: ED50

SMILES	ED50 [mg/kg]
Cc1c(N2CC[C@H](N)C2)c(F)cn2c(=O)c(C(=O)O)cc(C3CC3)c12 [ABT-719]	5.3

Tested on: not listed separately
Test: in vivo
Conditions: rat, po, 5 mg/kg
Description: Oral bioavailability in rat (dose 5 mg/kg)

SMILES	bioavailability [%]
Cc1c(N2CC[C@H](N)C2)c(F)cn2c(=O)c(C(=O)O)cc(C3CC3)c12 [ABT-719]	32

Tested on: Streptococcus pyogenes
Test: In vitro antibacterial activity against gram-positive organism Streptococcus pyogenes EES61
Assay type: functional
Conditions: Streptococcus pyogenes; read-out: MIC

SMILES	MIC [µg/mL]
Cc1c(N2CC[C@H](N)C2)c(F)cn2c(=O)c(C(=O)O)cc(C3CC3)c12 [ABT-719]	0.02 (≈ 0.0579 µM)

Tested on: not listed separately
Test: In vitro antibacterial activity against gram-negative organism Pseudomonas aeruginosa 5007
Assay type: functional
Conditions: Pseudomonas aeruginosa; read-out: MIC

SMILES	MIC [µg/mL]
Cc1c(N2CC[C@H](N)C2)c(F)cn2c(=O)c(C(=O)O)cc(C3CC3)c12 [ABT-719]	0.05 (≈ 0.145 µM)

Tested on: not listed separately
Test: In vitro antibacterial activity against gram-negative organism Pseudomonas aeruginosa DPHD-2862
Assay type: functional
Conditions: Pseudomonas aeruginosa; read-out: MIC

SMILES	MIC [µg/mL]
Cc1c(N2CC[C@H](N)C2)c(F)cn2c(=O)c(C(=O)O)cc(C3CC3)c12 [ABT-719]	0.78 (≈ 2.26 µM)

Biological target: T2, DNA gyrase (Escherichia coli)
Test: In vitro antibacterial activity against gram-positive organism Enterococcus faecium ATCC 8043
Assay type: functional
Conditions: not given

SMILES	MIC [µg/mL]
Cc1c(N2CC[C@H](N)C2)c(F)cn2c(=O)c(C(=O)O)cc(C3CC3)c12 [ABT-719]	0.02 (≈ 0.0579 µM)

Tested on: Enterococcus faecalis
Test: Inhibitory activity against enterococcus faecalis Van B
Assay type: functional
Conditions: not given

SMILES	MIC [µg/mL]
Cc1c(N2CC[C@H](N)C2)c(F)cn2c(=O)c(C(=O)O)cc(C3CC3)c12 [ABT-719]	0.03 (≈ 0.0869 µM)

Biological target: T2, DNA gyrase (Escherichia coli)
Test: In vitro antibacterial against gram-negative organism Escherichia coli JUHL
Assay type: functional
Conditions: Escherichia coli K-12

SMILES	MIC [µg/mL]
Cc1c(N2CC[C@H](N)C2)c(F)cn2c(=O)c(C(=O)O)cc(C3CC3)c12 [ABT-719]	0.002 (≈ 0.00579 µM)

Tested on: not listed separately
Test: Maximum plasma concentration in rats after an oral dose of 5 mg/kg
Conditions: rat

SMILES	Cmax [ng/mL]
Cc1c(N2CC[C@H](N)C2)c(F)cn2c(=O)c(C(=O)O)cc(C3CC3)c12 [ABT-719]	270

Biological target: T2, DNA gyrase (Escherichia coli)
Test: In vivo efficacy against Escherichia coli JUHL by subcutaneous administration
Assay type: functional, organism-based
Conditions: Escherichia coli K-12

SMILES	ED50 [mg/kg]
Cc1c(N2CC[C@H](N)C2)c(F)cn2c(=O)c(C(=O)O)cc(C3CC3)c12 [ABT-719]	0.1

Biological target: T2, DNA gyrase (Escherichia coli)
Test: not given
Conditions: Escherichia coli K-12

SMILES	CC50 [µg/mL]
Cc1c(N2CC[C@H](N)C2)c(F)cn2c(=O)c(C(=O)O)cc(C3CC3)c12 [ABT-719]	0.03 (≈ 0.0869 µM)

Biological target: T1, DNA gyrase (Staphylococcus aureus)
Test: In vitro antibacterial activity against gram-positive organism Staphylococcus aureus 1775
Assay type: functional
Conditions: not given

SMILES	MIC [µg/mL]
Cc1c(N2CC[C@H](N)C2)c(F)cn2c(=O)c(C(=O)O)cc(C3CC3)c12 [ABT-719]	0.78 (≈ 2.26 µM)

Tested on: not listed separately
Test: In vivo efficacy against Pseudomonas aeruginosa 5007 after subcutaneous administration
Assay type: functional
Conditions: Pseudomonas aeruginosa, sc; read-out: ED50

SMILES	ED50 [mg/kg]
Cc1c(N2CC[C@H](N)C2)c(F)cn2c(=O)c(C(=O)O)cc(C3CC3)c12 [ABT-719]	1.9

Biological target: T1, DNA gyrase (Staphylococcus aureus)
Test: In vitro antibacterial activity against gram-positive organism Staphylococcus aureus ATCC 6538p
Assay type: functional
Conditions: not given

SMILES	MIC [µg/mL]
Cc1c(N2CC[C@H](N)C2)c(F)cn2c(=O)c(C(=O)O)cc(C3CC3)c12 [ABT-719]	0.01 (≈ 0.029 µM)

Tested on: Streptococcus pneumoniae
Test: as §1
Assay type: functional
Conditions: not given

SMILES	ED50 [mg/kg]
Cc1c(N2CC[C@H](N)C2)c(F)cn2c(=O)c(C(=O)O)cc(C3CC3)c12 [ABT-719]	1.6

Biological target: T2, DNA gyrase (Escherichia coli)
Test: In vivo efficacy against Escherichia coli JUHL after oral administration
Assay type: functional, organism-based
Conditions: Escherichia coli K-12

SMILES	ED50 [mg/kg]
Cc1c(N2CC[C@H](N)C2)c(F)cn2c(=O)c(C(=O)O)cc(C3CC3)c12 [ABT-719]	0.6

Biological target: T2, DNA gyrase (Escherichia coli)
Test: In vitro antibacterial activity against gram-negative organism […] ATCC 13048
Assay type: functional
Conditions: Enterobacter aerogenes

SMILES	MIC [µg/mL]
Cc1c(N2CC[C@H](N)C2)c(F)cn2c(=O)c(C(=O)O)cc(C3CC3)c12 [ABT-719]	0.005 (≈ 0.0145 µM)

Biological target: T1, DNA gyrase (Staphylococcus aureus)
Test: In vivo efficacy against Staphylococcus aureus NCTC-10649M after subcutaneous administration
Assay type: functional, organism-based
Conditions: not given

SMILES	ED50 [mg/kg]
Cc1c(N2CC[C@H](N)C2)c(F)cn2c(=O)c(C(=O)O)cc(C3CC3)c12 [ABT-719]	0.6

Tested on: Pseudomonas aeruginosa
Test: In vivo efficacy against Pseudomonas aeruginosa 5007 following p.o. administration.
Conditions: not given

SMILES	ED50 [mg/kg]
Cc1c(N2CC[C@H](N)C2)c(F)cn2c(=O)c(C(=O)O)cc(C3CC3)c12 [ABT-719]	14.5

Tested on: Enterococcus faecium
Test: Inhibitory activity against enterococcus faecium Van A
Assay type: functional
Conditions: not given

SMILES	MIC [µg/mL]
Cc1c(N2CC[C@H](N)C2)c(F)cn2c(=O)c(C(=O)O)cc(C3CC3)c12 [ABT-719]	0.25 (≈ 0.724 µM)

Biological target: T2, DNA gyrase (Escherichia coli)
Test: In vitro antibacterial activity against gram-positive organism Streptococcus bovis A-5169
Assay type: functional
Conditions: Streptococcus equinus

SMILES	MIC [µg/mL]
Cc1c(N2CC[C@H](N)C2)c(F)cn2c(=O)c(C(=O)O)cc(C3CC3)c12 [ABT-719]	0.02 (≈ 0.0579 µM)

Biological target: T2, DNA gyrase (Escherichia coli)
Test: In vitro antibacterial activity against gram-negative organism Klebsiella pneumoniae ATCC 8045
Assay type: functional
Conditions: not given

SMILES	MIC [µg/mL]
Cc1c(N2CC[C@H](N)C2)c(F)cn2c(=O)c(C(=O)O)cc(C3CC3)c12 [ABT-719]	0.005 (≈ 0.0145 µM)
